In US20150266850A1 (E.I.DU PONT DE NEMOURS AND COMPANY, priority 2012, published 2015):

Tests used:
[1] = test system: Erysiphe graminis f. sp. tritici; test: Test A: wheat powdery mildew, preventive spray on wheat seedlings, visual disease rating; type: in vivo; conditions: Blumeria graminis, 192 h, 100 = 100% disease control
In short: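 Preventive test: seedlings inoculated with Erysiphe spores one day after run-off spraying at 200 ppm (or 40/50 ppm) in acetone/water plus surfactant. Kept 8 days at 20° C; visual rating as % disease control versus untreated (100 = full control).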

Septoria tritici = test: Test C: wheat leaf blotch, preventive spray on wheat seedlings, visual disease rating; type: in vivo; conditions: Zymoseptoria tritici, 504 h, 100 = 100% disease control
In short: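 Preventive run-off spray on seedlings at 200 ppm (equal to 800 g/ha), some at 40 or 50 ppm, in acetone/water 50/50 plus 250 ppm Trem® 014. Spore inoculation one day later; 24° C. saturated for 48 h, 20° C. chamber 19 days. Disease scored visually as % control relative to controls.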

Septoria nodorum = test: Test D: wheat glume blotch, preventive spray on wheat seedlings, visual disease rating; type: in vivo; conditions: Parastagonospora nodorum, 216 h, 100 = 100% disease control
In short: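 Disease control (0 = none, 100 = full, relative to controls) was scored visually on wheat seedlings 7 days after a 48 h saturated-humidity incubation at 20° C following Septoria nodorum inoculation. Inoculation came one day after a run-off spray at 200 ppm (some 40 or 50 ppm) in acetone/water plus surfactant.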

[2] = Photostability Example: aqueous photolysis under xenon arc lamp simulating natural sunlight for 24 hours, percent remaining relative to dark controls; type: physicochemical; conditions: 0.670 μg/mL in 80/20 10 mM pH 7 phosphate buffer/acetonitrile, xenon arc lamp 24 hours
Method: Aqueous photolysis data is a simple proxy for photostability under field conditions. The following aqueous photolysis data supports the enhanced photostability of the tolyl fungicides of the present invention.
Test compound (0.670 μg/mL) dissolved in 80/20 10 mM pH 7 phosphate buffer/acetonitrile is added to 2-mL borosilicate glass HPLC vials. The addition of 20% acetonitrile is intended to ensure solubility of compounds with low aqueous solubility. Samples are exposed to light in an Atlas Ci65 Burner photolysis chamber fitted with a xenon arc lamp (6500 W) to simulate natural sunlight for 24 hours and compared with samples wrapped in aluminum foil to protect them from light under the same conditions. The 24-hour irradiation is equivalent to ˜2.6 days of average Delaware summer sunlight exposure. Samples are analyzed by HPLC and results are reported as percent remaining based on peak area relative to the dark controls.

[3] = test system: Puccinia recondita f sp. tritici; test: Test B: wheat leaf rust, preventive spray on wheat seedlings, visual disease rating; type: in vivo; conditions: 192 h, 100 = 100% disease control
In short: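 Preventive spray to run-off on seedlings, one day before spore inoculation; 24 h in saturated atmosphere at 20° C, then 7 days in a 20° C growth chamber before visual rating (100 = full control, 0 = none, relative to controls). Standard rate 200 ppm, equal to 800 g/ha, some at 40 or 50 ppm; compounds in acetone/water with 250 ppm surfactant.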

Botrytis cinerea = test: Test E: tomato botrytis, preventive spray on tomato seedlings, visual disease rating; type: in vivo; conditions: Botrytis cinerea, 120 h, 100 = 100% disease control
In short: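 Preventive test: seedlings inoculated with Botrytis cinerea spore suspension one day after run-off spraying (200 ppm ≈ 800 g/ha; some 40 or 50 ppm) in acetone/water with 250 ppm surfactant. Incubation 48 h at 20°C saturated humidity, then 3 days at 27°C; disease control rated visually (0–100%) relative to controls.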

Row | melting point [°C] | SMILES | pest or weed control at 200 ppm [1] [%] | pest or weed control at 200 ppm (Septoria tritici) [%] | pest or weed control at 200 ppm (Septoria nodorum) [%] | % Cmpd Remaining [2] [%] | pest or weed control at 200 ppm [3] [%] | pest or weed control at 200 ppm (Botrytis cinerea) [%] | pest or weed control at 40 ppm [1] [%] | pest or weed control at 40 ppm (Septoria tritici) [%] | pest or weed control at 40 ppm (Septoria nodorum) [%] | pest or weed control at 40 ppm [3] [%] | pest or weed control at 40 ppm (Botrytis cinerea) [%]
1 | 164 to 166 | COC(=O)NCc1cc(-c2ncn(-c3ccc(OC)cc3F)n2)ccc1C [Compound 79] |  |  |  |  |  |  | 100 | 95 | 100 | 100 | 76
2 | 174 to 177 | COC(=O)NCc1cc(-c2ncn(-c3ccc(OC)cc3OC)n2)ccc1C [Compound 54] |  |  |  |  |  |  | 99 | 49 | 100 | 100 | 49
3 | 145 to 148 | COC(=O)NCc1cc(-c2ncn(-c3ccc(OC)cc3Cl)n2)ccc1C [Compound 78] |  |  |  |  |  |  | 99 | 93 | 100 | 100 | 68
4 | 148 to 151 | COC(=O)NCc1cc(-c2ncn(-c3ccc(C)cc3C)n2)ccc1C [Compound 118, methyl N-[[5-[1-(2,4-dimethylphenyl)-1H-1,2,4-triazol-3-yl]-2-methylphenyl]methyl]carbamate] | 99 |  |  |  | 100 |  |  |  |  |  | 
5 | 126 to 127 | COC(=O)NCc1cc(-n2ccc(-c3ccc(Cl)cc3OC)n2)ccc1C [Compound 11, methyl N-[[5-[3-(4-chloro-2-methoxyphenyl)-1H-pyrazol-1-yl]-2-methylphenyl]-methyl]carbamate] | 100 | 100 | 100 |  | 100 | 56 |  |  |  |  | 

The next lines start with the compound.

Row | SMILES | melting point [°C] | pest or weed control at 200 ppm [1] [%] | pest or weed control at 200 ppm (Septoria tritici) [%] | pest or weed control at 200 ppm (Septoria nodorum) [%] | % Cmpd Remaining [2] [%] | pest or weed control at 200 ppm [3] [%] | pest or weed control at 200 ppm (Botrytis cinerea) [%] | pest or weed control at 40 ppm [1] [%] | pest or weed control at 40 ppm (Septoria tritici) [%] | pest or weed control at 40 ppm (Septoria nodorum) [%] | pest or weed control at 40 ppm [3] [%] | pest or weed control at 40 ppm (Botrytis cinerea) [%]
6 | COC(=O)NCc1cc(-n2ncc(-c3ccc(OC)cc3OC)n2)ccc1C [Compound 17, methyl N-[[5-[4-(2,4-dimethoxyphenyl)-2H-1,2,3-triazol-2-yl]-2-methylphenyl]methyl]carbamate] | 132 to 135 | 100 | 100 | 100 | 30 | 100 | 33 |  |  |  |  | 
7 | COC(=O)NCc1cc(-n2ccc(-c3ccc(Cl)cc3Cl)n2)ccc1C [Compound 31, methyl N-[[5-[3-(2,4-dichlorophenyl)-1H-pyrazol-1-yl]-2-methylphenyl]-methyl]carbamate] | 101 to 103 | 100 | 100 | 100 |  | 100 | 16 |  |  |  |  | 
8 | COC(=O)NCc1cc(-c2ccn(-c3ccc(OC)cc3C)n2)ccc1C [Compound 18, methyl N-[[5-[1-(4-methoxy-2-methylphenyl)-1H-pyrazol-3-yl]-2-methylphenyl]methyl]carbamate] | 117 to 120 | 100 | 100 |  | 98 | 100 | 44 |  |  |  |  | 
9 | COC(=O)NCc1cc(-n2ccc(-c3ccc(OC)cc3C)n2)ccc1C [Compound 10, methyl N-[[5-[3-(4-methoxy-2-methylphenyl)-1H-pyrazol-1-yl]-2-methylphenyl]-methyl]carbamate] | 97 to 99 | 100 | 100 | 100 | 97 | 100 | 97 |  |  |  |  | 
